In the supplement of paper PMC10307832:

Columns and labels:
Experiment in all cases: relative viability (nuclei count vs DMSO), 5 days (fraction); higher = more cells survive
[1] = compound: CCN(CCO)CCCC(C)Nc1ccnc2cc(Cl)ccc12 [Hydroxychloroquine] + O=C(c1cc(Cc2n[nH]c(=O)c3ccccc23)ccc1F)N1CCN(C(=O)C2CC2)CC1 [Olaparib] (partner 8 µM)
In short: (§1)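 Cells from lung cancer lines were seeded into 1536-well plates and, one day later, dosed by pin tool. Treatments were either a single drug or a fixed dose of an anchor drug with five library-drug doses (not always all listed) in √10 steps. After 5 days, nuclei were stained in a one-step fixation (final 0.05% Triton X-100, 1% formaldehyde, 1 ug/ml Hoechst) and counted on 4× images, and relative viability is the treated-to-vehicle nuclei ratio, as the median of duplicate plates.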

[2] = compound: CCN(CCO)CCCC(C)Nc1ccnc2cc(Cl)ccc12 [Hydroxychloroquine] + CC(=O)c1c(C)c2cnc(Nc3ccc(N4CCNCC4)cn3)nc2n(C2CCCC2)c1=O [Palbociclib] (partner 0.5 µM)
In short: as §1

[3] = compound: CCN(CCO)CCCC(C)Nc1ccnc2cc(Cl)ccc12 [Hydroxychloroquine] + Cc1nc(NC(=O)N2CCC[C@H]2C(N)=O)sc1-c1ccnc(C(C)(C)C(F)(F)F)c1 [Alpelisib] (partner 2 µM)
In short: as §1

[4] = compound: CCN(CCO)CCCC(C)Nc1ccnc2cc(Cl)ccc12 [Hydroxychloroquine] + Nc1nc2[nH]cc(CCc3ccc(C(=O)N[C@@H](CCC(=O)O)C(=O)O)cc3)c2c(=O)[nH]1 [Pemetrexed] (partner 0.2 µM)
In short: as §1

| Cell Line | relative viability ([1]; first compound 0.5 µM) | relative viability ([1]; first compound 1.581 µM) | relative viability ([1]; first compound 5 µM) | relative viability ([1]; first compound 15.81 µM) | relative viability ([1]; first compound 50 µM) | relative viability ([2]; first compound 0.5 µM) | relative viability ([2]; first compound 1.581 µM) | relative viability ([2]; first compound 5 µM) | relative viability ([2]; first compound 15.81 µM) | relative viability ([2]; first compound 50 µM) | relative viability ([3]; first compound 0.5 µM) | relative viability ([3]; first compound 1.581 µM) | relative viability ([3]; first compound 5 µM) | relative viability ([3]; first compound 15.81 µM) | relative viability ([3]; first compound 50 µM) | relative viability ([4]; first compound 0.5 µM) | relative viability ([4]; first compound 1.581 µM) | relative viability ([4]; first compound 5 µM) | relative viability ([4]; first compound 15.81 µM) | relative viability ([4]; first compound 50 µM) |
| --- | --- | --- | --- | --- | --- | --- | --- | --- | --- | --- | --- | --- | --- | --- | --- | --- | --- | --- | --- | --- |
| 201T | 0.788 | 0.821 | 0.826 | 0.857 | 0.829 | 0.339 | 0.351 | 0.378 | 0.379 | 0.384 | 1.03 | 0.916 | 1.02 | 1.03 | 1.01 | 0.346 | 0.331 | 0.338 | 0.307 | 0.339 |
| A549 | 0.332 | 0.297 | 0.355 | 0.323 | 0.371 |  |  |  |  |  | 0.749 | 0.577 | 0.761 | 0.708 | 0.623 |  |  |  |  |  |
| A-427 | 0.816 | 0.702 | 0.61 | 0.691 | 0.816 | 0.499 | 0.474 | 0.483 | 0.512 | 0.493 | 1.06 | 1.03 | 1.04 | 0.956 | 1.1 | 0.948 | 1.05 | 0.926 | 0.838 | 1.01 |
| ABC-1 | 0.98 | 0.889 | 0.797 | 0.847 | 0.727 | 0.726 | 0.776 | 0.909 | 0.793 | 0.714 | 1.27 | 1.03 | 0.924 | 0.949 | 0.942 |  |  |  |  |  |
| BEN | 0.843 | 1.08 | 1.04 | 1.03 | 1.02 | 0.482 | 0.434 | 0.439 | 0.473 | 0.469 | 1.04 | 1.04 | 0.981 | 1.06 | 1.32 | 0.928 | 0.719 | 0.733 | 0.855 | 0.684 |
| CAL-12T | 0.693 | 0.63 | 0.782 | 0.689 | 0.68 | 0.56 | 0.383 | 0.462 | 0.478 | 0.595 | 1.24 | 1.16 | 1.32 | 1.42 | 1.69 | 1.15 | 1.18 | 1.31 | 1.27 | 1.33 |
| COR-L23 | 0.315 | 0.345 | 0.381 | 0.353 | 0.387 | 0.215 | 0.232 | 0.309 | 0.299 | 0.307 | 0.739 | 0.813 | 0.899 | 0.961 | 0.906 | 0.192 | 0.189 | 0.21 | 0.211 | 0.186 |
| COR-L 105 | 0.675 | 0.612 | 0.596 | 0.519 | 0.744 | 0.41 | 0.354 | 0.405 | 0.391 | 0.392 | 1.13 | 1 | 1.08 | 0.765 | 0.87 | 1.12 | 1.01 | 0.967 | 1.05 | 1.08 |
| Calu-6 | 0.65 | 0.607 | 0.615 | 0.673 | 0.569 |  |  |  |  |  | 1.01 | 0.881 | 0.896 | 0.939 | 0.924 |  |  |  |  |  |
| ChaGo-K-1 | 0.385 | 0.381 | 0.422 | 0.4 | 0.422 | 0.967 | 0.942 | 0.912 | 0.975 | 0.989 |  |  |  |  |  | 0.417 | 0.259 | 0.291 | 0.262 | 0.276 |
